# Results published in patent US10130693B2, “Peptides, combination of peptides and scaffolds for use in immunotherapeutic treatment of various cancers” (Immatics Biotechnologies GmbH, priority 2015, dated 2018).
# System: HLA-A*24
# Assay: MHC binding assay, UV-ligand exchange with beta2m ELISA (exchange yield), HLA-A*24
# Parameters: species or system human
# Settings: binding to HLA-A*24, UV-ligand exchange
# Description: Candidate peptides for T cell based therapies according to the present invention were further tested for their MHC binding capacity (affinity). The individual peptide-MHC complexes were produced by UV-ligand exchange, where a UV-sensitive peptide is cleaved upon UV-irradiation, and exchanged with the peptide of interest as analyzed. Only peptide candidates that can effectively bind and stabilize the peptide-receptive MHC molecules prevent dissociation of the MHC complexes. To determine the yield of the exchange reaction, an ELISA was performed based on the detection of the light chain (β2m) of stabilized MHC complexes. The assay was performed as generally described in Rodenko et al. (Rodenko et al., 2006).
# 96 well MAXISorp plates (NUNC) were coated over night with 2 ug/ml streptavidin in PBS at room temperature, washed 4× and blocked for 1 h at 37° C. in 2% BSA containing blocking buffer. […] Peptide-MHC monomers of the UV-exchange reaction were diluted 100 fold in blocking buffer. Samples were incubated for 1 h at 37° C., washed four times, incubated with 2 ug/ml HRP conjugated anti-β2m for 1h at 37° C., washed again and detected with TMB solution that is stopped with […]. Absorption was measured at 450 nm. Candidate peptides that show a high exchange yield (preferably higher than 50%, most preferred higher than 75%) are generally preferred for a generation and production of antibodies or fragments thereof, and/or T cell receptors or fragments thereof, as they show sufficient avidity to the MHC molecules and prevent dissociation of the MHC complexes.
row,Substance,"Peptide exchange (MHC class I binding score, peptide exchange yield)"
1,97 (TYTFLKETF; listed as Homo sapiens) [compound 97],++++ (>=75% = ++++)
2,100 (VYIESRIGTSTSF; listed as Homo sapiens) [compound 100],+++ (50%-75% = +++)
3,108 (PYLVVIHTL; listed as Homo sapiens) [compound 108],+++ (50%-75% = +++)
4,113 (IYSFHTLSF; listed as Homo sapiens) [compound 113],+++ (50%-75% = +++)
5,116 (AYVIAVHLF; listed as Homo sapiens) [compound 116],++++ (>=75% = ++++)
6,117 (IYLSDLTYI; listed as Homo sapiens) [compound 117],+++ (50%-75% = +++)
7,118 (KYLNSVQYI; listed as Homo sapiens) [compound 118],+++ (50%-75% = +++)
8,121 (RYGLPAAWSTF; listed as Homo sapiens) [compound 121],+++ (50%-75% = +++)
9,123 (VYTPVLEHL; listed as Homo sapiens) [compound 123],++ (20%-49% = ++)
10,124 (TYKDYVDLF; listed as Homo sapiens) [compound 124],+ (<20% = +)
11,125 (VFSRDFGLLVF; listed as Homo sapiens) [compound 125],+++ (50%-75% = +++)
12,127 (QYFTGNPLF; listed as Homo sapiens) [compound 127],+++ (50%-75% = +++)
13,128 (VYPFDWQYI; listed as Homo sapiens) [compound 128],++++ (>=75% = ++++)
14,129 (KYIDYLMTW; listed as Homo sapiens) [compound 129],++++ (>=75% = ++++)
15,131 (EYLDRIGQLFF; listed as Homo sapiens) [compound 131],+++ (50%-75% = +++)
16,133 (KYLEDMKTYF; listed as Homo sapiens) [compound 133],+++ (50%-75% = +++)
17,134 (AYIPTPIYF; listed as Homo sapiens) [compound 134],+++ (50%-75% = +++)
18,135 (VYEAMVPLF; listed as Homo sapiens) [compound 135],++++ (>=75% = ++++)
19,136 (IYPEWPVVFF; listed as Homo sapiens) [compound 136],+++ (50%-75% = +++)
20,138 (VYNAVSTSF; listed as Homo sapiens) [compound 138],++ (20%-49% = ++)
21,141 (SYNGHLTIWF; listed as Homo sapiens) [compound 141],+++ (50%-75% = +++)

row,Substance,"Peptide exchange (MHC class I binding score, peptide exchange yield)"
1,143 (KYIFQLNEI; listed as Homo sapiens) [compound 143],+++ (50%-75% = +++)
2,145 (VYALKVRTI; listed as Homo sapiens) [compound 145],+++ (50%-75% = +++)
3,146 (NYYERIHAL; listed as Homo sapiens) [compound 146],+++ (50%-75% = +++)
4,147 (LYLAFPLAF; listed as Homo sapiens) [compound 147],+++ (50%-75% = +++)
5,148 (SYGTVSQIF; listed as Homo sapiens) [compound 148],++++ (>=75% = ++++)
6,149 (SYGTVSQI; listed as Homo sapiens) [compound 149],++++ (>=75% = ++++)
7,152 (KFFDDLGDELLF; listed as Homo sapiens) [compound 152],++ (20%-49% = ++)
8,153 (VYVPFGGKSMITF; listed as Homo sapiens) [compound 153],++++ (>=75% = ++++)
9,154 (VYGVPTPHF; listed as Homo sapiens) [compound 154],++++ (>=75% = ++++)
10,159 (IYEETRGVL; listed as Homo sapiens) [compound 159],+++ (50%-75% = +++)
11,165 (EYFTPLLSGQF; listed as Homo sapiens) [compound 165],+++ (50%-75% = +++)
12,169 (NYITGKGDVF; listed as Homo sapiens) [compound 169],+++ (50%-75% = +++)
13,173 (QYLEKYYNL; listed as Homo sapiens) [compound 173],++++ (>=75% = ++++)
14,176 (FYINGQYQF; listed as Homo sapiens) [compound 176],+++ (50%-75% = +++)
15,178 (NYSSAVQKF; listed as Homo sapiens) [compound 178],+++ (50%-75% = +++)
16,183 (PYLQDVPRI; listed as Homo sapiens) [compound 183],+++ (50%-75% = +++)
17,184 (IYSVGAFENF; listed as Homo sapiens) [compound 184],++++ (>=75% = ++++)
18,185 (QYLVHVNDL; listed as Homo sapiens) [compound 185],++++ (>=75% = ++++)
19,187 (AYAANVHYL; listed as Homo sapiens) [compound 187],++++ (>=75% = ++++)
20,188 (GYKTFFNEF; listed as Homo sapiens) [compound 188],+++ (50%-75% = +++)
21,191 (TYPDGTYTGRIF; listed as Homo sapiens) [compound 191],+++ (50%-75% = +++)

row,Substance,"Peptide exchange (MHC class I binding score, peptide exchange yield)"
1,192 (RYSTFSEIF; listed as Homo sapiens) [compound 192],+++ (50%-75% = +++)
2,193 (LYLENNAQTQF; listed as Homo sapiens) [compound 193],+++ (50%-75% = +++)
3,194 (VYQSLSNSL; listed as Homo sapiens) [compound 194],+++ (50%-75% = +++)
4,195 (AYIKGGWIL; listed as Homo sapiens) [compound 195],+++ (50%-75% = +++)
5,196 (GYIRGSWQF; listed as Homo sapiens) [compound 196],++++ (>=75% = ++++)
6,197 (IFTDIFHYL; listed as Homo sapiens) [compound 197],++++ (>=75% = ++++)
7,198 (DYVGFTLKI; listed as Homo sapiens) [compound 198],++ (20%-49% = ++)
8,199 (SYLNHLNNL; listed as Homo sapiens) [compound 199],+++ (50%-75% = +++)
9,200 (VFIHHLPQF; listed as Homo sapiens) [compound 200],+++ (50%-75% = +++)
10,201 (GYNPNRVFF; listed as Homo sapiens) [compound 201],+++ (50%-75% = +++)
11,202 (RYVEGIVSL; listed as Homo sapiens) [compound 202],+++ (50%-75% = +++)
12,204 (EYLSTCSKL; listed as Homo sapiens) [compound 204],+++ (50%-75% = +++)
13,205 (VYPVVLNQI; listed as Homo sapiens) [compound 205],+++ (50%-75% = +++)
14,206 (NYLDVATFL; listed as Homo sapiens) [compound 206],++++ (>=75% = ++++)
15,207 (LYSDAFKFIVF; listed as Homo sapiens) [compound 207],+++ (50%-75% = +++)
16,208 (TYLEKIDGF; listed as Homo sapiens) [compound 208],++++ (>=75% = ++++)
17,209 (AFIETPIPLF; listed as Homo sapiens) [compound 209],++++ (>=75% = ++++)
18,210 (IYAGVGEFSF; listed as Homo sapiens) [compound 210],++++ (>=75% = ++++)
19,211 (VFKSEGAYF; listed as Homo sapiens) [compound 211],++++ (>=75% = ++++)
20,212 (SYAPPSEDLF; listed as Homo sapiens) [compound 212],++ (20%-49% = ++)
